US4948807A, “Phenyl carbamates” (priority 1985, dated 1990)
Where two headings read alike, the source gives them in different places.

Experiments:
[1] = cited from earlier work; for penetration of the central nervous system: in vivo; for absorption from the gastro-intestinal tract: oral
[2] = tested on: brain acetylcholinesterase; conditions: for Relative potency to physostigmine after oral administration / % cholinesterase inhibition 3 hours after s.c. administration / Relative potency to physostigmine after subcut. (s.c.) administration: mouse brain; for Relative potency to physostigmine after oral administration / Relative potency to physostigmine after subcut. (s.c.) administration: physostigmine = 100
Procedure: The effect of each compound on brain acetylcholinesterase in vivo was measured, after subcutaneous or oral administration to mice. Animals were sacrificed, at different times ranging from 0.25-8 hours after drug administration. The brain was rapidly removed, and the enzyme acetylcholinesterase extracted and solubilized with 0.1% Triton, and its ability to hydrolyse acetylthiocholine assessed as described above (in vitro experiments), in comparison with the enzyme removed from mice injected with normal saline.

[3] = in vivo; cited from earlier work
[4] = eye drops; cited from earlier work
acetylcholinesterase [5] = target: T1, acetylcholinesterase (Mus musculus, UniProt P21836); experiment: biochemical; format: biochemical
T1 construct: A solubilized preparation of acetylcholinesterase was prepared from mouse whole brain (minus cerebellum); from tissue; host or cells: mouse whole brain (minus cerebellum), membrane pellet solubilized with 1% Triton
T1 sequence (P21836 32-614): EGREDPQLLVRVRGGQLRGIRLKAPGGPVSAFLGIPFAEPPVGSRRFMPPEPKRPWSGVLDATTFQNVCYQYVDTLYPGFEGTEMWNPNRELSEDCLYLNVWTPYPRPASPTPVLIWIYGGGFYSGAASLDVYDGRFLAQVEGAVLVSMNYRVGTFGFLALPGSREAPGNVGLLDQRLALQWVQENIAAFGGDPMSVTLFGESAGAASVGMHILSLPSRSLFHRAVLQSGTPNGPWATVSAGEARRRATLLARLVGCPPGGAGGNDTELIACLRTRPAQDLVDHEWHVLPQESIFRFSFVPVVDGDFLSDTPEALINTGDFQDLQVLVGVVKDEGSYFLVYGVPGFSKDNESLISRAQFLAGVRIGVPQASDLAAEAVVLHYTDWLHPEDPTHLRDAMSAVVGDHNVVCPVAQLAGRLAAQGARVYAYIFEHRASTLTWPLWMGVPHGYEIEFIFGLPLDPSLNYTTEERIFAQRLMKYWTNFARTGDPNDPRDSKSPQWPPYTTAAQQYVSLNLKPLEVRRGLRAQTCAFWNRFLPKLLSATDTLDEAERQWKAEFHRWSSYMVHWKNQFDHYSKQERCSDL
Procedure: A solubilized preparation of acetylcholinesterase was prepared from mouse whole brain (minus cerebellum). The brain was homogenized with (100 mg/ml) phosphate buffer; pH 8.0, centrifuged, the supernatant discarded, and the pellet mixed with a similar volume as above of buffer pH 8.0 plus 1% Triton; mixed, centrifuged and the supernatant which contained most of the solubilized enzyme, was used for the subsequent determinations of anticholinesterase activity.
The activity of the enzyme (rate of hydrolysis of substrate, acetylthiocholine) was measured using at least 4 different concentrations of substrate, and at least 3 different concentrations of each inhibitor. The enzyme was incubated with inhibitor for periods ranging for 2-180 mins. at 37° C., substrate was then added, and its rate of hydrolysis measured by the spectrophotometric method of Ellman et al. (1961).

in vivo = conditions: mouse, in vivo
Procedure: Mice were given one of at least three different doses of each compound, orally or subcutaneously, a minimum of 10 mice allotted to each dose. The number of animals which died at each dose within 3 hours was determined.
This experiment was repeated after the animals had been pretreated with atropine sulphate, which blocks both peripheral and central muscarinic receptors.
What is important is the safety of the drugs and the presence and severity of side effects that may occur at therapeutic doses. A commonly-used measure of drug safety is the therapeutic index--or LD50 /ED50 [formula]
It is assumed that the therapeutic effect of these anticholinesterase agents results from an elevation of brain cholinergic activity. This in turn, should be related to the degree of inhibition of acetylcholinesterase. For the purpose of the computation of the denominator of the therapeutic ratio, there is used the dose of drug that inhibits the activity of acetylcholinesterase by 50%. […] The numerator is the dose found to kill 50% of the animals within […] of a subcutaneous injection.

acetylcholinesterase [6] = conditions: compared with the monoquaternary molecules; cited from earlier work
[7] = tested on: respiratory depressant effects of morphine; format: in vivo; conditions: rabbits
Procedure: Different doses of the carbamate compounds were injected intravenously with morphine in rabbits Respiration rate, arterial blood gas tensions and pH were monitored continuously before and after drug administration for 4-5 hours. In another series of experiments the effect of the anticholinesterase drugs was assessed on the analgesic effect of opiates in rabbits after application of a nociceptive stimulus, i.e. electrical stimulation of the sciatic nerve.

[8] = tested on: acetylcholinesterase in the cerebro-spinal fluid; conditions: patients with Alzheimer's disease; Thal et al. 1983; cited from earlier work
Huntingdon's chorea = conditions: injections; cited from earlier work
tardive dyskinesias = conditions: injected intravenously; cited from earlier work
[9] = in vivo; cited from earlier work; remark: listed apart in the source
[10] = incubation of enzyme with inhibitor, 37° C.
[11] = Ratio whose head is drawing 10 (Table 3; oral LD50 compared with s.c. LD50), mice, oral versus s.c.
[12] = sc, Therapeutic ratio LD50/ED50 s.c., mice, ED50 = dose inhibiting brain acetylcholinesterase by 50%

CN(C)C(=O)Oc1ccc[n+](C)c1 [pyridostigmine]
penetration of the central nervous system [1]: do not penetrate the central nervous system to any significant extent | absorption from the gastro-intestinal tract [1]: only poorly absorbed from the gastro-intestinal tract

CNC(=O)Oc1cccc(C(C)N(C)C)c1 (centres unmarked) [Miotine, reference compound]
Relative potency to physostigmine after oral administration [2]: 300 | % cholinesterase inhibition 3 hours after s.c. administration [2]: 5% | Relative potency to physostigmine after subcut. (s.c.) administration [2]: 100 | insecticidal activity [3]: claimed to be an insecticide | myopic activity [4]: myopic agent | IC50 (acetylcholinesterase [5]): 13 nM | Time of peak activity (acetylcholinesterase [5]; [10]): 30 min | selectivity ratio (in vivo; [11]): 1.2 | LD50 at 3 h (in vivo; sc): 4.5 µmol/kg | selectivity ratio (in vivo; [12]): 4.9

CN(CCCCCCCCCCN(C)C(=O)Oc1cccc([N+](C)(C)C)c1)C(=O)Oc1cccc([N+](C)(C)C)c1 [Demacarium]
selectivity for acetylcholinesterase over butyrylcholinesterase (acetylcholinesterase [6]): more selective inhibitors of acetylcholinesterase than butyrylcholinesterase

CNC(=O)Oc1ccc2c(c1)[C@]1(C)CCN(C)[C@@H]1N2C [Physostigmine, reference compound]
penetration of the central nervous system [1]: readily enters the brain | absorption from the gastro-intestinal tract [1]: irregular and unpredictable | duration of antagonism of the respiratory depressant effect of morphine ([7]; 0.1-0.2 mg/kg): 30 to 60 min | muscle fasciculations ([7]; with morphine): fasciculations are marked at the higher dose | duration of significant brain enzyme inhibition (>30%) ([2]; mouse, in vivo): less than 2 hours | block of acetylcholinesterase in cerebro-spinal fluid at dose giving maximum improvement in short term memory [8]: 50% | IC50 (acetylcholinesterase [5]): 11 nM | Time of peak activity (acetylcholinesterase [5]): 30 min | benefit in Huntingdon's chorea (Huntingdon's chorea): some benefit | improvement of tardive dyskinesias (tardive dyskinesias): significant but short lived improvement in a proportion of patients | half-life [9]: 20 to 40 min | LD50 at 3 h (in vivo; sc): 3 µmol/kg

CN(C)C(=O)Oc1cccc([N+](C)(C)C)c1 [neostigmine]
penetration of the central nervous system [1]: do not penetrate the central nervous system to any significant extent | absorption from the gastro-intestinal tract [1]: only poorly absorbed from the gastro-intestinal tract

CCCNC(=O)Oc1cccc(C(C)N(C)C)c1 (centres unmarked) [RA15, N-propyl-3[1-(dimethylamino)ethyl]phenyl carbamate]
duration of significant antagonism of the respiratory depressant effects of morphine ([7]; depending on drug and dose): 3 to 5 h | duration of significant brain enzyme inhibition (>30%) ([2]; at ED50 dose): more than 3 hours | relative in vivo activity compared to physostigmine versus in vitro data ([2]; comparison of Table 1 with Table 2): relatively more active in vivo compared to physostigmine than one would expect from the in vitro data | Relative potency to physostigmine after oral administration [2]: 32 | % cholinesterase inhibition 3 hours after s.c. administration [2]: 37% | Relative potency to physostigmine after subcut. (s.c.) administration [2]: 33 | duration of brain acetylcholinesterase inhibition compared with physostigmine or miotine ([2]; parenteral administration, in words): significantly longer duration | IC50 (acetylcholinesterase [5]): 110 nM | Time of peak activity (acetylcholinesterase [5]; [10]): 120 min | selectivity ratio (in vivo; Degree of protection afforded by pretreatment with atropine, ratio of LD50 after pretreatment with atropine sulphate 5 mg/kg to LD50 of drug alone): 4.1 | selectivity ratio (in vivo; [11]): 4.5 | LD50 at 3 h (in vivo; sc): 31 µmol/kg | selectivity ratio (in vivo; [12]): 11.1

CC[N+](CC)(CCNC(=O)C(=O)NCC[N+](CC)(CC)Cc1ccccc1Cl)Cc1ccccc1Cl [Ambenonium]
selectivity for acetylcholinesterase over butyrylcholinesterase (acetylcholinesterase [6]): more selective inhibitors of acetylcholinesterase than butyrylcholinesterase
